The results in this text go back to US12439944B2, “3-hydroxybutyrate compounds for use in reducing liver fat” (TDeltaS Limited, priority 2017, dated 2025).

Series [1] has as its system liver fat. Kind of series: Reduction of liver fat, general statement. It counts as in vivo.
The nature of series [2]: Body weight change after five-day ketone ester drink regime. It counts as in vivo, human. The conditions noted are these: 393 mg/kg body weight 3 times per day for 5 days. How it is done: Three obese subjects (BMI 33±3 kg/m^2) and seven lean subjects (BMI 23±2 kg/m^2), matched for age, gender, diabetes duration, treatment and HBA1c, underwent a ^1H-MRS scan for quantification of liver steatosis. All subjects were weighed and underwent a treatment regime for five days in which each subject consumed three drinks per day containing 0.393 g/kg body weight of (R)-3-hydroxybutyrate-R-1,3-butanediol monoester, made up to a final volume of 3.3 ml/kg body weight. […] The subjects were not asked to change their normal diet, but did keep diet diaries. Subjects lost 1.3 kg over the five-day period, irrespective of their starting body weight. The weight loss in 7 lean subjects (FIG. 1a) and 3 obese subjects (FIG. 1b) was the same, 1.3 kg, after drinking 393 mg/kg body weight (R)-3-hydroxybutyrate-(R)-1,3 butanediol monoester (ΔG®) 3 times per day for 5 days.

Series [3] concerns liver fat. The series can be described thus: 1H Magnetic Resonance Spectroscopy (MRS) of liver, quantification of liver fat. Format: in vivo, human. To be noted: for liver fat (hepatic triglyceride relative to water): lean subjects; for liver triglyceride level: obese subjects. How it is done: Three obese subjects (BMI 33±3 kg/m^2) and seven lean subjects (BMI 23±2 kg/m^2), matched for age, gender, diabetes duration, treatment and HBA1c, underwent a ^1H-MRS scan for quantification of liver steatosis. All subjects were weighed and underwent a treatment regime for five days in which each subject consumed three drinks per day containing 0.393 g/kg body weight of (R)-3-hydroxybutyrate-R-1,3-butanediol monoester, made up to a final volume of 3.3 ml/kg body weight. […] Liver ^1H-MRS was performed on each of the subjects at the beginning and end of the 5 days to determine the change in liver fat. The ^1H-MRS measurements were carried out on a 3 T Siemens Tim Trio using a whole-body coil and 6-channel anterior plus 24-channel posterior phased-array coils for signal receiving. To obtain hepatic ^1H-MRS, an 8-ml voxel (2×2×2) was positioned in the liver, avoiding gross vascular, biliary structures and adipose tissue depots. Spectra, with and without water suppression, were obtained to calculate hepatic triglyceride content as a percentage relative to water (triglyceride/water×100). A calibration pulse sequence was implemented to evaluate the optimal water suppression pulse scaling factor. Individual coil signals were combined within Matlab using specifically written modules. The water-suppressed scans were constructively averaged, including frequency correction. Spectra were quantified using the Advanced Method of Accurate, Robust and Efficient Spectroscopic ([…]) fitting algorithm. Metabolite peaks (including lipid/triglycerides) were analyzed and prior knowledge was used for all peak locations by using soft constraints. All peaks were fitted using Lorentzian lineshapes.

The nature of series [4]: Blood (R)-3-hydroxybutyrate level after oral administration. Format: in vivo. To be noted: for circulating levels of (R)-3-hydroxybutyrate in the blood: general statement; for uptake in the gut: upon consumption of a drink. On the procedure:
At a dose of 1 g/kg of body weight of the subject, the blood (R)-3-hydroxybutyrate concentration is suitably at least 4 mM, preferably 5 mM. Upon oral administration of monoester of 1.5 g/kg of body weight of the subject, the blood (R)-3-hydroxybutyrate concentration is suitably at least 7 mM, preferably at least 8 mM, especially at least 9 mM. A dosing regime comprises multiple drinks consumed separately.
Blood levels of (R)-3-hydroxybutyrate may be determined by commercially available testing kits, for example, (R)-3-hydroxybutyrate can be measured on whole blood using a handheld monitor and reagent strips (Precision Xtra, Abbott Diabetes Care, UK).

The mark [5] stands for this setting: end of the 5 days, 393 mg/kg 3 times per day.

Turning to `C[C@@H](O)CCOC(=O)C[C@@H](C)O` [(R)-3-hydroxybutyrate (R)-1,3-butanediol monoester], the “effect on liver fat” value in the series on liver fat [1] was “reduce liver fat”. Moreover, the weight loss in series [2] (3 obese subjects) is 1.3 kg. In series [2] (7 lean subjects), this molecule came in with a weight loss of 1.3 kg. Moreover, the “change in liver fat” value with liver fat [3] (7 lean subjects, 393 mg/kg 3 times per day for 5 days) was “no loss of liver fat”. In addition, in the series on liver fat [3] (beginning of the 5 days), the “liver fat (hepatic triglyceride relative to water)” value was found to be 2.3% and the liver triglyceride level is 17.5%. In the series on liver fat [3] (setting [5]), the “liver fat (hepatic triglyceride relative to water)” value came to 2.5% and the liver triglyceride level is 14.1%. Also, the “period of raised (R)-3-hydroxybutyrate concentrations” value in series [4] (compared with ketone salts) was “longer period than ketone salts”. In series [4], the “circulating levels of (R)-3-hydroxybutyrate in the blood” value is “high circulating levels” and the “uptake in the gut” value was “surprisingly high level of uptake in the gut”.

Regarding “(R)-3-hydroxybutyrate-glycerol partial ester”, the “effect on liver fat” value with liver fat [1] is “reduce liver fat”. Also, in series [4], the “circulating levels of (R)-3-hydroxybutyrate in the blood” value is recorded as “high circulating levels” and the “uptake in the gut” value was “surprisingly high level of uptake in the gut”.
